Entries after “also recorded” stand apart in the source; their conditions may differ.
Assays:
[1] = tested on: primary cortical neurons
[2] = tested on: primary cortical neurons; remark: listed apart in the source
[3] = tested on: mouse middle cerebral artery occlusion (MCAO) stroke model; conditions: in vivo
[4] = tested on: primary cortical neurons; assay type: cell-based
[5] = tested on: primary cortical neurons; assay type: cell-based; remark: listed apart in the source
[6] = tested on: primary cortical neurons; assay type: cell-based; remark: listed apart in the source
[7] = tested on: mouse middle cerebral artery occlusion (MCAO) stroke model; conditions: in vivo; remark: listed apart in the source
[8] = tested on: mouse middle cerebral artery occlusion (MCAO) stroke model; conditions: in vivo; remark: listed apart in the source

Q: For `O=C1CC[C@@]2(O)[C@H]3Cc4ccc(O)c5c4[C@@]2(CCN3CC2CC2)[C@H]1O5` [NTX, naltrexone], which “neuronal survival (MTT), NMDA, in words” value [1] is on record?
A: did not show any significant effect

Q: What about the “neuronal survival (MTT), in words” value [2] of the same molecule?
A: No statistical significant difference

Q: What about the “neurological score, in words” value [3] of the same molecule?
A: did not improve any neurological score

Q: And the “neuronal death (LDH), NMDA, in words” value [4]?
A: did not show any significant effect

Q: And the “neuronal death (LDH), in words” value [5]?
A: No statistical significant difference

Q: And the “ROS production, in words” value [6]?
A: did not show a significant decrease in ROS production

Q: What does the source list for `C[C@@H](NC(=O)[C@@H](N)Cc1ccc(O)cc1)C(=O)NCC(=O)N[C@@H](Cc1ccccc1)C(=O)NNC(=O)[C@H](Cc1ccccc1)NC(=O)CNC(=O)[C@@H](C)NC(=O)[C@@H](N)Cc1ccc(O)cc1` [biphalin]?
A: neuronal survival (MTT), NMDA, in words [1]: significantly improved relative neuronal survival; more neuronal survival (MTT), NMDA ([1]; 3 h): 28.7%; edema formation, in words [7]: significantly decreased edema formation; infarct formation, in words [7]: significantly decreased; also recorded: significantly reduced infarct formation; reduction in edema formation [7]: 56.17%; reduction in infarct ratio [7]: 67.0%; neuronal survival (MTT), in words [2]: significantly increased neuronal survival; more neuronal survival (MTT) ([2]; 3 h, 10 nM): 42.6%; neurological score improvement [3]: 25.5%; neurological score, in words [3]: improved neurological behavior; less LDH release, NMDA [4]: 18.4%; neuronal death (LDH), NMDA, in words [4]: significantly decreased relative neuronal death; less LDH release [5]: 30.5%; neuronal death (LDH), in words [5]: significantly decreased neuronal cell death; ROS production, in words [6]: significantly decreased ROS production; less ROS production [6]: 29.1%; Horizontal Activity [8]: 760; No. of Movements [8]: 42; Rest Time [8]: 240 s; Stereotpy Counts [8]: 390; Total Distance (CM) [8]: 650 CM; Vertical Activity [8]: 28; locomotor parameters, in words [8]: statistically significantly improved all the locomotor parameters

Reference: patent US20210196782A1 (priority 2015, published 2021)
